One assay relates to CCRF-CEM. Put plainly: Concentration required to reduce the viability of mock-infected CEM cells by 50%. Type of assay: functional. As to conditions: Homo sapiens.
Assay [1] relates to Human immunodeficiency virus 2. Put plainly: Effective concentration required to inhibit HIV-2 induced cytopathicity by 50% in CEM cells. Type of assay: functional, organism-based. The note with it: Human immunodeficiency virus 2, CCRF-CEM. For orientation: Damage to the host cells serves as the signal in cytopathic effect assays.
In assay [2] the target is T1, Human immunodeficiency virus type 1 reverse transcriptase (Human immunodeficiency virus 1, UniProt Q72547). Put plainly: The compound was evaluated for inhibition of HIV-1 wild types […]-Lys recombinant reverse transcriptase.
The target of assay [3] is T1, Human immunodeficiency virus type 1 reverse transcriptase. Briefly: The compound was evaluated for inhibition of HIV-1 mutant […]-Lys recombinant reverse transcriptase.

On to `Cc1cn([C@@H]2O[C@H](CO[Si](C)(C)C(C)(C)C)[C@@H](O[Si](C)(C)C(C)(C)C)[C@H]2O)c(=O)n(CC(=O)OCc2ccccc2)c1=O`, for which the CC50 (usually the concentration that lowers cell viability or growth by half) in the assay on CCRF-CEM is 57.1 µM. For the same molecule, the EC50 (in general, the concentration at which the effect is half-maximal) in assay [1] is > 10 µM.
With `Cc1cn([C@@H]2O[C@H](CO)[C@@H](O)[C@H]2O[Si](C)(C)C(C)(C)C)c(=O)n(CC(=O)O)c1=O`, the CC50 with CCRF-CEM is > 250 µM. The EC50 in assay [1] is > 250 µM.
In the assay with CCRF-CEM, `Cc1cn(C2O[C@H](CO[Si](C)(C)C(C)(C)C)[C@@H](O)[C@H]2O)c(=O)n(CC(=O)OCc2ccccc2)c1=O` (stereo partly drawn) had a CC50 of 30 µM. The EC50 in assay [1] was > 10 µM.
In the assay with CCRF-CEM, `Cc1cn([C@@H]2O[C@H](CO[Si](C)(C)C(C)(C)C)[C@@H](O)[C@H]2O[Si](C)(C)C(C)(C)C)c(=O)n(CC(=O)OCc2ccccc2)c1=O` gave a CC50 of 25.7 µM. Besides, in assay [1], the EC50 was > 10 µM.
As to `Cc1cn([C@@H]2O[C@H](CO[Si](C)(C)C(C)(C)C)[C@@H](O[Si](C)(C)C(C)(C)C)[C@H]2O[Si](C)(C)C(C)(C)C)c(=O)n(CC(=O)O)c1=O`, the CC50 with CCRF-CEM is > 125 µM. Besides, the EC50 in assay [1] is > 125 µM.
Molecule `Cc1cn([C@@H]2O[C@H](CO[Si](C)(C)C(C)(C)C)[C@@H](O)[C@H]2O[Si](C)(C)C(C)(C)C)c(=O)n(CC(=O)O)c1=O` gave a CC50 in the assay with CCRF-CEM of 23 µM. For the same molecule, in assay [1], the EC50 is > 10 µM. Besides, the IC50 (in general, the concentration that inhibits the measured activity by half) in assay [2] is 138 µM; in assay [3], 158 µM.
`Cc1cn([C@@H]2O[C@H](CO)[C@@H](O)[C@H]2O[Si](C)(C)C(C)(C)C)c(=O)n(CC(=O)OCc2ccccc2)c1=O` displayed a CC50 in the assay with CCRF-CEM of 26 µM. The concentration giving a half-maximal response (EC50) in assay [1] is > 10 µM.
For `Cc1cn(C2O[C@H](CO)[C@@H](O)[C@H]2O)c(=O)n(CC(=O)O)c1=O` (stereo partly drawn), the CC50 in the assay on CCRF-CEM is > 250 µM. The EC50 in assay [1] was > 250 µM.
`Cc1cn(C2CCC(CO[Si](C)(C)C(C)(C)C)O2)c(=O)n(CC(=O)O)c1=O` (stereo not drawn): the CC50 in the assay with CCRF-CEM is > 250 µM. Further, in assay [1], the EC50 was > 250 µM.
For the molecule `Cc1cn(C2O[C@H](CO)[C@@H](O)[C@H]2O)c(=O)n(CC(=O)OCc2ccccc2)c1=O` (stereo partly drawn), the CC50 in the assay with CCRF-CEM is > 250 µM. In addition, the EC50 in assay [1] is > 250 µM.
For the molecule `Cc1cn(C2O[C@H](CO[Si](C)(C)C(C)(C)C)[C@@H](O)[C@H]2O)c(=O)n(CC(=O)O)c1=O` (stereo partly drawn), in the assay with CCRF-CEM, the CC50 is > 250 µM. Further, in assay [1], the EC50 was > 250 µM.
As for `Cc1cn(C2OC(CO[Si](C)(C)C(C)(C)C)CC2O[Si](C)(C)C(C)(C)C)c(=O)n(CC(=O)OCc2ccccc2)c1=O` (stereo not drawn), half-maximal cytotoxicity in the assay with CCRF-CEM (CC50) was put at 21.6 µM. Moreover, the EC50 in assay [1] is > 2 µM.
Take `Cc1cn([C@@H]2O[C@H](CO[Si](C)(C)C(C)(C)C)[C@@H](O[Si](C)(C)C(C)(C)C)[C@H]2O)c(=O)n(CC(=O)O)c1=O`: in the assay on CCRF-CEM, half-maximal cytotoxicity (CC50) was put at 29.3 µM. Moreover, in assay [1], the EC50 is > 10 µM. Besides, the IC50 in assay [2] came out at 207 µM; in assay [3], 335 µM.
For the molecule `Cc1cn([C@H]2C[C@H](O[Si](C)(C)C(C)(C)C)[C@@H](CO[Si](C)(C)C(C)(C)C)O2)c(=O)n(CC(=O)OCc2ccccc2)c1=O`, it took 56.4 µM to reach half-maximal cytotoxicity in the assay with CCRF-CEM (CC50). The EC50 in assay [1] is > 10 µM.
For the molecule `Cc1cn([C@@H]2O[C@H](CO[Si](C)(C)C(C)(C)C)C3(OS(=O)(=O)C=C3N)[C@H]2O[Si](C)(C)C(C)(C)C)c(=O)[nH]c1=O` (stereo partly drawn), half-maximal cytotoxicity in the assay on CCRF-CEM (CC50) was put at 14 µM. In addition, in assay [1], the EC50 is > 20 µM. The IC50 in assay [2] was 3.6 µM; in assay [3] it was > 500 µM.
As for `Cc1cn([C@H]2C[C@H](O[Si](C)(C)C(C)(C)C)[C@@H](CO[Si](C)(C)C(C)(C)C)O2)c(=O)n(CC(=O)O)c1=O`, the midpoint of cytotoxicity in the assay on CCRF-CEM, the CC50, lay at 20.3 µM. Besides, in assay [1], the EC50 is > 10 µM.
Take `Cc1cn([C@@H]2O[C@H](CO[Si](C)(C)C(C)(C)C)[C@@H](O[Si](C)(C)C(C)(C)C)[C@H]2O[Si](C)(C)C(C)(C)C)c(=O)n(CC(=O)OCc2ccccc2)c1=O`: the CC50 with CCRF-CEM was found to be 102 µM. Further, the EC50 in assay [1] was > 50 µM.
`Cc1cn(C2OC(CO[Si](C)(C)C(C)(C)C)CC2O[Si](C)(C)C(C)(C)C)c(=O)n(CC(=O)O)c1=O` (stereo not drawn) came in with a CC50 in the assay with CCRF-CEM of 20.7 µM. The EC50 in assay [1] was > 10 µM. For the same molecule, the results for the IC50 in assay [2] and in assay [3] were 33.8 µM and 47.4 µM, respectively.
For the molecule `Cc1cn(C2CCC(CO[Si](C)(C)C(C)(C)C)O2)c(=O)n(CC(=O)OCc2ccccc2)c1=O` (stereo not drawn), the CC50 in the assay on CCRF-CEM was > 250 µM. In addition, in assay [1], the EC50 is > 50 µM.
Molecule `Cc1cn([C@H]2C[C@H](N=[N+]=[N-])[C@@H](CO)O2)c(=O)[nH]c1=O` [ZIDOVUDINE] came in with a CC50 in the assay with CCRF-CEM of 6 µM. Moreover, the EC50 in assay [1] came out at 0.004 µM.

Values taken from ChEMBL document CHEMBL1133864, “Identification of a novel family of nucleosides that specifically inhibit HIV-1 reverse transcriptase” (Bioorg Med Chem Lett, 2001).
